“And” between values parts separate entries of the source, which are not always exact repeats. Equal entries are not always repeated.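 The compound was tested at five concentrations on cells cultured in 96-well plates, with a 48-hour exposure period. GI50: concentration for 50% inhibition of growth. TGI: concentration producing complete growth inhibition.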

Test systems include CCRF-CEM leukemia; HOP-62 NSCLC; HOP-92 NSCLC; K-562 leukemia; KM12 colon; NCI-H23 lung; SN12C renal; SW-620 colon; UACC-257 melanoma.
Common to all, as to assay: NCI-60 cell line screen, 48 h

Consider `CCN(CC)CCNC(=O)c1c(C)[nH]c(/C=C2\C(=O)Nc3ccc(F)cc32)c1C`, for which the GI50 in the assay on CCRF-CEM leukemia is 5.62 µM and 6.48 µM and 1.89 µM; in the assay on HOP-62 NSCLC it was 5.27 µM and 2.42 µM and 2.64 µM; in the assay with HOP-92 NSCLC it was 0.831 µM and 0.439 µM; in the assay with K-562 leukemia, 2.29 µM and 3.22 µM and 1.53 µM; in the assay with KM12 colon, 0.11 µM and 0.1 µM and 0.0322 µM; in the assay with NCI-H23 lung, 3.88 µM and 2.6 µM and 2.39 µM. Further, the GI50 is 1.95 µM and 1.24 µM and 2.23 µM in the assay on SN12C renal; 1.76 µM and 1.95 µM and 1.4 µM in the assay on SW-620 colon; > 10 µM and 2.49 µM and 3.24 µM in the assay on UACC-257 melanoma. In addition, the TGI in the assay on CCRF-CEM leukemia is > 10 µM and 20 µM and 8.85 µM; with HOP-62 NSCLC, > 10 µM and 5.94 µM and 15.3 µM; with HOP-92 NSCLC, 9.01 µM and 3.05 µM; in the assay with K-562 leukemia, > 10 µM and 9.75 µM and 5.57 µM; in the assay on KM12 colon, > 10 µM and 3.03 µM and 5.54 µM; in the assay with NCI-H23 lung, > 10 µM and 9.21 µM and 14.5 µM. The TGI in the assay on SN12C renal is > 10 µM and 20 µM and 16.2 µM; in the assay with SW-620 colon it was 7.67 µM and 5.22 µM and 4.22 µM; with UACC-257 melanoma it was > 10 µM and 5.21 µM and 8.69 µM.

In the case of `COc1ccccc1-c1cc(=O)c2ccc(C)nc2[nH]1`, the TGI in the assay on CCRF-CEM leukemia, with HOP-62 NSCLC, in the assay on HOP-92 NSCLC, with K-562 leukemia, with KM12 colon and in the assay with NCI-H23 lung was more than 100 µM in each case. The TGI with SN12C renal, with SW-620 colon and with UACC-257 melanoma was more than 100 µM each time.

Regarding `O=S(=O)(CCOCc1ccc(-c2ccc3ncnc(Nc4ccc(OCc5cccc(F)c5)c(Cl)c4)c3c2)o1)c1ccccc1`, the GI50 in the assay on CCRF-CEM leukemia, with HOP-62 NSCLC, in the assay with HOP-92 NSCLC, in the assay on K-562 leukemia, in the assay with KM12 colon and in the assay with NCI-H23 lung was more than 25 µM throughout. In addition, the GI50 in the assay with SN12C renal, with SW-620 colon and in the assay with UACC-257 melanoma was more than 25 µM each time. Also, the TGI in the assay with CCRF-CEM leukemia, with HOP-62 NSCLC, in the assay on HOP-92 NSCLC, with K-562 leukemia, with KM12 colon and in the assay on NCI-H23 lung was more than 25 µM throughout. In addition, the TGI in the assay with SN12C renal, with SW-620 colon and in the assay with UACC-257 melanoma was more than 25 µM in each case.

With `CCCCCCCCCCCC[n+]1ccccc1` (tested in a mixture with another compound), the GI50 in the assay with CCRF-CEM leukemia was 0.724 µM; in the assay on HOP-62 NSCLC, 1.15 µM; in the assay with HOP-92 NSCLC, 0.29 µM; in the assay on K-562 leukemia, 0.392 µM; in the assay with KM12 colon, 0.38 µM; in the assay with NCI-H23 lung, 0.655 µM. Moreover, the GI50 in the assay on SN12C renal was 1.19 µM; with SW-620 colon, 1.57 µM; in the assay with UACC-257 melanoma it was 0.772 µM. Further, the TGI is 4.53 µM in the assay with CCRF-CEM leukemia; 3.59 µM in the assay with HOP-62 NSCLC; 2.43 µM with HOP-92 NSCLC; 11 µM with K-562 leukemia; 1.59 µM with KM12 colon; 5.48 µM in the assay with NCI-H23 lung. For the same compound, the TGI was 3.43 µM in the assay with SN12C renal, 10.5 µM with SW-620 colon and 2.88 µM with UACC-257 melanoma.

Turning to `CCC(=C(c1ccc(OCCCN(C)C)cc1)c1ccc(OCCCN(C)C)cc1)c1ccc(Cl)cc1`, the GI50 was 0.392 µM in the assay with CCRF-CEM leukemia; 2.31 µM with HOP-62 NSCLC; 0.945 µM with HOP-92 NSCLC; 0.324 µM in the assay on K-562 leukemia; 1.26 µM in the assay on KM12 colon; 2.5 µM in the assay on NCI-H23 lung. Also, the values for the GI50 with SN12C renal, in the assay with SW-620 colon and in the assay on UACC-257 melanoma were 2.18 µM, 0.314 µM and 0.883 µM, respectively. Moreover, the TGI worked out at 1.13 µM with CCRF-CEM leukemia; 5.1 µM with HOP-62 NSCLC; 3.42 µM with HOP-92 NSCLC; 0.78 µM in the assay with K-562 leukemia; 3.43 µM in the assay on KM12 colon; 4.98 µM in the assay on NCI-H23 lung. Also, the figures for the TGI in the assay with SN12C renal, with SW-620 colon and with UACC-257 melanoma were 4.55 µM, 0.648 µM and 2.24 µM, respectively.

`Cc1cc(Nc2nc(SCc3ccc(C(=O)Nc4ccc(F)cc4N)cc3)nn3cccc23)n[nH]1`: the GI50 with CCRF-CEM leukemia was 0.411 µM; in the assay with HOP-62 NSCLC, 0.556 µM; in the assay on HOP-92 NSCLC, 3.68 µM; with K-562 leukemia, 0.0487 µM; in the assay with KM12 colon, 0.284 µM; with NCI-H23 lung it was 0.603 µM. Besides, the GI50 in the assay on SN12C renal is 1.25 µM; with SW-620 colon, 0.426 µM; in the assay with UACC-257 melanoma, 3.69 µM. The TGI was more than 100 µM with CCRF-CEM leukemia; more than 100 µM in the assay with HOP-62 NSCLC; 24.3 µM in the assay with HOP-92 NSCLC; more than 100 µM in the assay with K-562 leukemia; 10.3 µM in the assay on KM12 colon; 47.4 µM in the assay with NCI-H23 lung. Moreover, the TGI was more than 100 µM in the assay with SN12C renal, more than 100 µM with SW-620 colon and 32.4 µM in the assay with UACC-257 melanoma.

In the case of `C=CCC1[C@@H](C(C)(C)C(C(C)=O)C(=O)C(=O)OC)OC(C(C)(C)C)N1C(=O)OC` (stereo not given in full), the TGI in the assay with CCRF-CEM leukemia, with HOP-62 NSCLC, with HOP-92 NSCLC, with K-562 leukemia, with KM12 colon and in the assay on NCI-H23 lung was more than 100 µM in each case. Moreover, the TGI in the assay on SN12C renal and in the assay with UACC-257 melanoma was more than 100 µM in each case.

In the case of `OC(c1ccc(Br)cc1)(c1cccs1)C1CC1` (stereo not given), the TGI in the assay with CCRF-CEM leukemia was 91.8 µM; with HOP-62 NSCLC, 47.2 µM; in the assay with HOP-92 NSCLC, 37.7 µM; with K-562 leukemia, more than 100 µM; in the assay with KM12 colon, 35.3 µM; with NCI-H23 lung, 56.9 µM. In addition, the TGI with SW-620 colon came to 87.5 µM; with UACC-257 melanoma it was 71.3 µM.

`Cc1ccc2c(c1)Sc1ccc(N=NN(C)C)cc1N2C`: the TGI in the assay on CCRF-CEM leukemia, in the assay with HOP-62 NSCLC, with HOP-92 NSCLC, in the assay on KM12 colon, in the assay with NCI-H23 lung and with SN12C renal was more than 100 µM throughout. For the same compound, the TGI with SW-620 colon is more than 100 µM.

Turning to `C=CCO/N=C/c1cc(NC(=S)c2ccoc2C)ccc1Cl`, the TGI was more than 100 µM in the assay with CCRF-CEM leukemia; 29.5 µM in the assay on HOP-62 NSCLC; 42.3 µM with HOP-92 NSCLC; 25.5 µM in the assay on KM12 colon; 26.7 µM in the assay on NCI-H23 lung; 30.3 µM in the assay with SN12C renal. Besides, the TGI is more than 100 µM with SW-620 colon and 34 µM in the assay on UACC-257 melanoma.
